Assay: Human HepG2 cell viability assay in 384 well format
Assay type: toxicity, cell-based
Set-up: dose 125 nL, time 70.5 hour; concentration not given beside the values
Details: HepG2 cells, read-out: Inhibition
`CCc1nnc(CN2CCN(C(=O)c3cc4ccccc4[nH]3)CC2)o1` showed a cytotoxicity at 70.5 h of -3.19%.
`CCOc1ccc(C#N)cc1NCC(=O)OC` gave a cytotoxicity at 70.5 h of -2.6%.
With `Cc1ccn2ncc(C(=O)N3CCCC(n4nc(C)nc4C)C3)c2n1` (stereo unspecified) the cytotoxicity at 70.5 h was -5.04%.
`O=C(Cc1ccco1)N1C[C@H]2CCC[C@@]2(COCc2cccnc2)C1` showed a cytotoxicity at 70.5 h of -10.4%.
`CC(C)OCc1cccc(NC(=O)N2CCCC(CCC(N)=O)C2)c1` (stereo unspecified) gave a cytotoxicity at 70.5 h of 6.13%.
In the case of `CC(C)(C)NC(=O)CNC(=O)Nc1cc(-c2ccccc2)ns1`, the cytotoxicity at 70.5 h is reported as -14.8%.
For `Cc1nn(C)c(C)c1C1CCCN1Cc1ccc(C(N)=O)cc1` (stereo unspecified), the cytotoxicity at 70.5 h was -10.3%.
In the case of `Nc1nc2nc(C3CCN(C(=O)c4cscn4)C3)ccc2s1` (stereo unspecified), the cytotoxicity at 70.5 h is reported as -5.85%.
In the case of `CC(C)(C)CC(=O)N1CCc2sccc2C1`, the cytotoxicity at 70.5 h is reported as -7.51%.
For `CC(=O)N1CCc2nnc(C3CCCCN3CC3CCCCC3)n2CC1` (stereo unspecified), the cytotoxicity at 70.5 h was 12.6%.
For `Cc1ccc(N2CCC(Nc3ccc4nnc(C)n4n3)CC2)nc1`, the cytotoxicity at 70.5 h was -1.55%.
`O=C1CN(C(=O)CSC2CCCc3ccccc32)CCN1` (stereo unspecified) gave a cytotoxicity at 70.5 h of 5.33%.
Compound `Cc1cc2[nH]c(=O)oc2cc1S(=O)(=O)N1CCCC(N(C)C)CC1` (stereo unspecified) has a cytotoxicity at 70.5 h of -2.95%.
For `CN(C)CCN(Cc1ccc(Cl)cc1)C(=O)c1ccn(C)c(=O)c1`, the cytotoxicity at 70.5 h was -5.83%.
`CCc1ccc(CNC(=O)NC2CCCc3c2cnn3CCO)s1` (stereo unspecified) showed a cytotoxicity at 70.5 h of -2.75%.
In the case of `Cn1ccnc1CN1CCCN(Cc2noc(C3CC3)n2)CC1`, the cytotoxicity at 70.5 h is reported as -1.01%.
For `CCOc1cc(CNCCCn2ccnc2)cc(Cl)c1OCC`, the cytotoxicity at 70.5 h was 19.9%.
In the case of `COc1cccc(N2CCN(C(=O)c3ccc(=O)n(C)c3)CC2)c1`, the cytotoxicity at 70.5 h is reported as -3.95%.
In the case of `Fc1cnc(N2CCOC3(CCN(Cc4cccs4)CC3)C2)nc1`, the cytotoxicity at 70.5 h is reported as -6.76%.
With `CCOc1ccc(CN2CCNC(C(=O)NC3CC3)C2)cc1CO` (stereo unspecified) the cytotoxicity at 70.5 h was -10.9%.
`O=C(NC1CCN(c2ccccc2OC(F)F)C1)c1cccnc1` (stereo unspecified) gave a cytotoxicity at 70.5 h of -4.78%.
With `CC(C)(C)NC(=O)N1CCCn2nc(C(=O)Nc3ccccc3)cc2C1` the cytotoxicity at 70.5 h was -12.5%.
`O=C(CCN1CCOC(C(F)(F)F)C1)NCc1cccc(Cl)c1` (stereo unspecified) gave a cytotoxicity at 70.5 h of -5.6%.
With `COc1ccc2c(c1)c(C(=O)Nc1n[nH]c(C(C)C)n1)cn2C(C)C` the cytotoxicity at 70.5 h was 40.7%.
`CC(=O)C(Cc1ccccc1)NC(=O)CSc1nccn1C1CC1` (stereo unspecified) showed a cytotoxicity at 70.5 h of -0.98%.
In the case of `Cc1ccc(C)n1-c1ccsc1C(=O)NCC(=O)N1CCCC1`, the cytotoxicity at 70.5 h is reported as -1.31%.
In the case of `Cc1csc2c(C3CCN(CCOc4ccccc4F)CC3)nc(C)n12`, the cytotoxicity at 70.5 h is reported as 18.2%.
With `Cn1cnc(S(=O)(=O)NCC(O)c2ccc3c(c2)CCO3)c1` (stereo unspecified) the cytotoxicity at 70.5 h was -16.8%.
`CN(C)C(=O)c1ccc(C2CCCNC2)nc1` (stereo unspecified) showed a cytotoxicity at 70.5 h of -6.57%.
`CCn1nc(NC(=O)Cn2ccc(C(C)=O)n2)c2ccccc21` showed a cytotoxicity at 70.5 h of 26.9%.
Work on `CNc1nc(C)c(C(=O)N2C[C@H]3CC[C@@H]2CN(c2cnccn2)C3)s1` yielded a cytotoxicity at 70.5 h of -6.37%.
With `CCN1CC(COC(C)(C)C)Oc2ccncc2S1(=O)=O` (stereo unspecified) the cytotoxicity at 70.5 h was -4.84%.
`CN1CCc2c(C#N)c(NCCCN3CCOCC3)n3cnnc3c2C1` showed a cytotoxicity at 70.5 h of -14.3%.
For `CCCN(Cc1cnn(C)c1)S(=O)(=O)c1cccc(F)c1C#N`, the cytotoxicity at 70.5 h was -2.96%.
`O=C(NC[C@H]1C[C@@H]2CN(C(=O)c3ccco3)C[C@@H]2O1)c1ccsc1` showed a cytotoxicity at 70.5 h of -3.16%.
`COC(=O)C1CCN(C(=O)Nc2cc(-n3cccc3)ccc2F)CC1` gave a cytotoxicity at 70.5 h of -6.77%.
For `COCC1CC2(CCN(Cc3cnn(C)c3)CC2)CN1c1ncccn1` (stereo unspecified), the cytotoxicity at 70.5 h was -10.8%.
Compound `CN1CCOC(CN(C(=O)COc2ccccc2)c2nccs2)C1` (stereo unspecified) has a cytotoxicity at 70.5 h of -4%.
Work on `CCCn1ncnc1C(C)NC(=O)C1CCN(C(C)C)CC1` (stereo unspecified) yielded a cytotoxicity at 70.5 h of -4.07%.
In the case of `Cc1cnn(C2CN(CC(=O)NCC3(c4ccccc4)CC3)C2)c1`, the cytotoxicity at 70.5 h is reported as -6.95%.
`CCCN1CCc2c(C(=O)N(C)Cc3ccccn3)nn(C)c2C1` gave a cytotoxicity at 70.5 h of -6.22%.
`COc1cccc(OCC(=O)NS(=O)(=O)c2ccc(C)s2)c1` showed a cytotoxicity at 70.5 h of 14%.
`CNS(=O)(=O)c1ccc(CNC(=O)N(C)CC(O)COC)cc1` (stereo unspecified) showed a cytotoxicity at 70.5 h of -74.7%.
Work on `CC(C)c1cc(NC(=O)c2ccc(NC3CC3)nc2)[nH]n1` yielded a cytotoxicity at 70.5 h of -5.73%.
Work on `CC(C)c1nc(CNc2nccc(CCC(F)(F)F)n2)cs1` yielded a cytotoxicity at 70.5 h of -8.19%.
`O=C(c1ccco1)N1CCCC2(CN(Cc3ccc(F)cc3)CCO2)C1` (stereo unspecified) gave a cytotoxicity at 70.5 h of -1.46%.
For `Cc1cncc(C(=O)NCCSCc2cccs2)c1`, the cytotoxicity at 70.5 h was -3.14%.
In the case of `CS(=O)(=O)NC1CCCN(C(=O)Nc2ccccc2Cn2cccn2)C1` (stereo unspecified), the cytotoxicity at 70.5 h is reported as 14.4%.
With `CN1CCN(C[C@H]2OC[C@@H]3CCN(Cc4ccsc4)C[C@@H]32)CC1` the cytotoxicity at 70.5 h was -0.843%.
In the case of `COc1cccc(-c2noc(-c3ccc(NCCCN)nc3)n2)c1OC`, the cytotoxicity at 70.5 h is reported as 2.21%.
Work on `O=C(O)c1ccc(-c2cscn2)cc1` yielded a cytotoxicity at 70.5 h of -6.68%.
For `O=S(=O)(Nc1cn[nH]c1)c1ccc(F)c(Br)c1`, the cytotoxicity at 70.5 h was -4.68%.
Work on `Nc1cc(N2CCCC(COc3ccc(F)cc3)C2)nc(N)n1` (stereo unspecified) yielded a cytotoxicity at 70.5 h of -2.71%.
`Cc1nc(CN2C(=O)CCC23CCN(c2ncccc2C)CC3)cs1` gave a cytotoxicity at 70.5 h of 33.3%.
`COc1ccc(CC(=O)N2CCN(C)c3ncccc3C2)cc1` showed a cytotoxicity at 70.5 h of 11.6%.
`CCc1noc(CN(Cc2cccs2)CC2CCCO2)n1` (stereo unspecified) gave a cytotoxicity at 70.5 h of -1.65%.
For `CCN(CCC1CCN(C(=O)NCc2nncn2CC)CC1)CC1CC1`, the cytotoxicity at 70.5 h was 15.6%.
Work on `O=C(NC1CCCN(Cc2c(F)cccc2F)C1)c1cnccn1` (stereo unspecified) yielded a cytotoxicity at 70.5 h of 1.65%.
Work on `CC(=O)c1ccc(N2CCCC(CO)(Cc3ccccc3C)C2)nc1` (stereo unspecified) yielded a cytotoxicity at 70.5 h of -3.1%.
In the case of `Cc1nc[nH]c1C(=O)N1CC[C@@H](NC(=O)c2ccccn2)[C@H](O)C1`, the cytotoxicity at 70.5 h is reported as -1.79%.
For `CN(C)C(=O)CN1CCC2(CC1)COc1ccccc1S(=O)(=O)N(C)C2`, the cytotoxicity at 70.5 h was 0.16%.
Work on `COC(=O)C(O)C1CCN(CCc2ccc(C)cc2)CC1` (stereo unspecified) yielded a cytotoxicity at 70.5 h of 9.49%.
In the case of `O=C(CN1CCCC(c2noc(C3CC3)n2)C1)N1CCCC1` (stereo unspecified), the cytotoxicity at 70.5 h is reported as 4.7%.
With `COCCN(Cc1cnn(C)c1)CC1CCN(C(C)C)CC1` the cytotoxicity at 70.5 h was -1.39%.
Compound `COc1ccc(CN2C[C@@H]3CN(C(=O)c4ccsc4)C[C@@H]3C2=O)cc1` has a cytotoxicity at 70.5 h of -4.99%.
In the case of `Cc1ccc(CCc2nc(C3CCOC3)no2)o1` (stereo unspecified), the cytotoxicity at 70.5 h is reported as 6.82%.
`COc1ncccc1NC(=O)NC(C)(C)c1ncc(C)s1` gave a cytotoxicity at 70.5 h of 16.5%.
Compound `Cc1cc(C)n(C2CN(CC(=O)N(C)Cc3ccsc3)C2)n1` has a cytotoxicity at 70.5 h of -1.75%.
In the case of `COCC1CN(C(=O)CC2Cc3ccccc3C2)Cc2c1cnn2C` (stereo unspecified), the cytotoxicity at 70.5 h is reported as -5.66%.
For `Cc1nn(C)c2ncc(CNCCc3ccccn3)cc12`, the cytotoxicity at 70.5 h was -8.59%.
`Cc1ncncc1C(=O)N1CCCC(Cc2nccs2)C1` (stereo unspecified) showed a cytotoxicity at 70.5 h of -4.31%.
Compound `COc1ccccc1C(=O)N1CCN(C(=O)CCn2ccnc2)CC1` has a cytotoxicity at 70.5 h of -5.01%.
In the case of `COCCN1CCC(C)(c2cc(O)[nH]n2)CC1`, the cytotoxicity at 70.5 h is reported as -3.06%.
Work on `COc1cccc(-n2nnc(C(=O)N3CCCCCC3)c2C)c1` yielded a cytotoxicity at 70.5 h of -12.9%.
`CCOCc1cnc2n1CCN(C(=O)C1=CCCC1)C2C` (stereo unspecified) showed a cytotoxicity at 70.5 h of -2.23%.
Work on `CCn1cc(-c2cc(-c3ccn(C)c3)nc(N)c2C#N)cc1C#N` yielded a cytotoxicity at 70.5 h of 5.48%.
`O=C(Cc1cccc(O)c1)NCCCNC(=O)c1cccc(F)c1` gave a cytotoxicity at 70.5 h of -5.97%.
`CN1CCN(CCCN(C)S(=O)(=O)C2CCCCC2)CC1` showed a cytotoxicity at 70.5 h of -1.58%.
Work on `CCCc1nc(N2CCN(Cc3ccccn3)CC2)c2cnn(C)c2n1` yielded a cytotoxicity at 70.5 h of -6.11%.
For `Cc1ccc(C(=O)N2C[C@@H]3CCN(C(C)C)C[C@@H]3C2)cn1`, the cytotoxicity at 70.5 h was 0.492%.
Work on `O=C1NC(c2ccccc2)=N[C@@]12CC[C@@H]1CN(Cc3ccoc3)C[C@@H]12` yielded a cytotoxicity at 70.5 h of -3.26%.
